Reference: article PMC10354055, “An optimized Nurr1 agonist provides disease-modifying effects in Parkinson’s disease models” (Nature Communications, 2023)
“And” between values parts separate entries of the source, which are not always exact repeats. Equal entries are not always repeated.

Experiments:
Assay in all cases: Luciferase assay with point-mutants of Nurr1-LBD, SK-N-BE(2)C cells;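 also: Firefly luciferase normalized to beta-galactosidase activity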
Type in all cases: cell-based
Nurr1-LBD point mutants [1] = target: T1, Nurr1-LBD point mutants (Mus musculus, UniProt Q06219, K590A); conditions: Fig. 1g, K590A
T1 construct: expressed in transfected cells; host or cells: SK-N-BE(2)C
Description: (§1) Nurr1 transactivity was normalized to β-galactosidase activity.
(§2) Nurr1 mutants were generated using the QuikChange ǁ XL site-directed mutagenesis kit (Agilent Technologies) according to the manufacturer’s instruction. Mutagenesis reactions were carried out on the plasmid of mouse Nurr1 cloned into pcDNA3.1 backbone, and then verified by sequencing.

Nurr1-LBD point mutants [2] = target: T2, Nurr1-LBD point mutants (Mus musculus, UniProt Q06219, S441A); conditions: Fig. 1g, S441A
T2 construct: expressed in transfected cells; host or cells: SK-N-BE(2)C
Description: as §1, §2

Nurr1-LBD point mutants [3] = target: T3, Nurr1-LBD point mutants (Mus musculus, UniProt Q06219); conditions: Fig. 1g, WT
T3 construct: expressed in transfected cells; host or cells: SK-N-BE(2)C
Description: as §1, §2

Nurr1-LBD point mutants [4] = target: T4, Nurr1-LBD point mutants (Mus musculus, UniProt Q06219, I588A); conditions: Fig. 1g, I588A
T4 construct: expressed in transfected cells; host or cells: SK-N-BE(2)C
Description: as §1, §2

Nurr1-LBD point mutants [5] = target: T5, Nurr1-LBD point mutants (Mus musculus, UniProt Q06219, I573A); conditions: Fig. 1g, I573A
T5 construct: expressed in transfected cells; host or cells: SK-N-BE(2)C
Description: as §1, §2

Nurr1-LBD point mutants [6] = target: T6, Nurr1-LBD point mutants (Mus musculus, UniProt Q06219, L593A); conditions: Fig. 1g, L593A
T6 construct: expressed in transfected cells; host or cells: SK-N-BE(2)C
Description: as §1, §2

Nurr1-LBD point mutants [7] = target: T7, Nurr1-LBD point mutants (Mus musculus, UniProt Q06219, A586F); conditions: Fig. 1g, A586F
T7 construct: expressed in transfected cells; host or cells: SK-N-BE(2)C
Description: as §1, §2

T4 sequence (Q06219 whole entry I588A, the tested form may be a part): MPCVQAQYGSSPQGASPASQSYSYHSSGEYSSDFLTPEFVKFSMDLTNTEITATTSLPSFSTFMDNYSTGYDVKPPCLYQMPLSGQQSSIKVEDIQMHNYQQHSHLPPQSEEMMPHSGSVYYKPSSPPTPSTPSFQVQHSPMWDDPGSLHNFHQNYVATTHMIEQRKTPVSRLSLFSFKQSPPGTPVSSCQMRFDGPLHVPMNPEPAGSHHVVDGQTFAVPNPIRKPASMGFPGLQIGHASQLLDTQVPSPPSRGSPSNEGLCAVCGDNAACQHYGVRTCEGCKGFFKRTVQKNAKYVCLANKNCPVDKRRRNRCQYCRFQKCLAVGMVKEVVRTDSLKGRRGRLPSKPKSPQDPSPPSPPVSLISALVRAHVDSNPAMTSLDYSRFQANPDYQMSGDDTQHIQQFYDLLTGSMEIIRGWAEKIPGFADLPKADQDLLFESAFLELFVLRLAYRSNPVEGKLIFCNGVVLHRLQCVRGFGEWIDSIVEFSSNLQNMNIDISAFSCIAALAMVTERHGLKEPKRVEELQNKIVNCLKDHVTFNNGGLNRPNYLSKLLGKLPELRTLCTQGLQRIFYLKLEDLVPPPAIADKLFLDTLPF
T3 sequence (Q06219 whole entry, change not shown, the tested form may be a part): as the sequence (Q06219 whole entry I588A, the tested form may be a part) above, with A588I counted along it
T6 sequence (Q06219 whole entry L593A, the tested form may be a part): as the sequence (Q06219 whole entry I588A, the tested form may be a part) above, with A588I, L593A counted along it
T5 sequence (Q06219 whole entry I573A, the tested form may be a part): as the sequence (Q06219 whole entry I588A, the tested form may be a part) above, with I573A, A588I counted along it
T7 sequence (Q06219 whole entry A586F, the tested form may be a part): as the sequence (Q06219 whole entry I588A, the tested form may be a part) above, with A586F, A588I counted along it
T1 sequence (Q06219 whole entry K590A, the tested form may be a part): as the sequence (Q06219 whole entry I588A, the tested form may be a part) above, with A588I, K590A counted along it
T2 sequence (Q06219 whole entry S441A, the tested form may be a part): as the sequence (Q06219 whole entry I588A, the tested form may be a part) above, with S441A, A588I counted along it

SMILES: CCN1CCN(c2cc(N3CCN(CC)CC3)nc(NCCNc3ccnc4cc(Cl)ccc34)n2)CC1 [4A7C-301, N^1-(4,6-bis(4-ethylpiperazin-1-yl)pyrimidin-2-yl)-N^2-(7-chloroquinolin-4-yl)ethane-1,2-diamine]
- Luciferase activity (fold) (Nurr1-LBD point mutants [1]): 9.662 fold and 10.9664 fold and 10.3366 fold and 9.703 fold
- Luciferase activity (fold) (Nurr1-LBD point mutants [2]): 8.067 fold and 8.586 fold and 8.69 fold and 8.14 fold
- Luciferase activity (fold) (Nurr1-LBD point mutants [3]): 18.0755 fold and 17.4184 fold and 17.5507 fold and 18.6728 fold
- Luciferase activity (fold) (Nurr1-LBD point mutants [4]): 2.735 fold and 2.747 fold and 2.797 fold and 2.7361 fold
- Luciferase activity (fold) (Nurr1-LBD point mutants [5]): 1.906 fold and 2.068 fold and 2.015 fold and 1.962 fold
- Luciferase activity (fold) (Nurr1-LBD point mutants [6]): 5.7 fold and 5.711 fold and 5.709 fold and 5.928 fold
- Luciferase activity (fold) (Nurr1-LBD point mutants [7]): 16.9378 fold and 18.2618 fold and 17.9787 fold and 16.7737 fold
